Assay results from ChEMBL document CHEMBL1681683, “Synthesis and biological evaluation of 1,4-benzodiazepin-2-ones with antitrypanosomal activity” (Bioorg Med Chem, 2011).
≈ marks a conversion by molar mass, not a printed value.

What was measured:
[1] = tested on: Trypanosoma brucei brucei; experiment: Antitrypanosomal activity against bloodstream form of Trypanosoma brucei brucei […] after 48 hrs by alamar blue assay; type: functional
[2] = tested on: Trypanosoma brucei brucei; experiment: Antitrypanosomal activity against TbAT1-deficient Trypanosoma brucei brucei after 48 hrs by alamar blue assay; type: functional, organism-based
[3] = tested on: Trypanosoma brucei brucei; experiment: Antitrypanosomal activity against TbAT1 and HAPT1-deficient Trypanosoma brucei brucei B48 after 48 hrs by alamar blue assay; type: functional, organism-based
[4] = tested on: Trypanosoma brucei brucei; experiment: Antitrypanosomal activity against bloodstream form of Trypanosoma brucei brucei s427 after 48 hrs by alamar blue assay; type: functional, organism-based; conditions: s427, 48 h
[5] = tested on: Trypanosoma brucei brucei; experiment: Resistance factor, ratio of IC50 for TbAT1-deficient bloodstream form of Trypanosoma brucei brucei to IC50 for wild-type bloodstream form of Trypanosoma brucei brucei s427; type: functional
[6] = tested on: Trypanosoma brucei brucei; experiment: Resistance factor, ratio of IC50 for Trypanosoma brucei brucei B48 to IC50 for wild-type bloodstream form of Trypanosoma brucei brucei s427; type: functional
[7] = Trypanosoma brucei, 48 h, read-out: IC50
[8] = Trypanosoma brucei, B48, 48 h, read-out: IC50

SMILES | MIC [1] | other results
O=C1Nc2ccccc2C(C2CCCCC2)=N[C@H]1Cc1ccccc1 | 12.5 µM (≈ 4.16 µg/mL) | –
Nc1nc(N)nc(Nc2ccc([As]3SCC(CO)S3)cc2)n1 (stereo not given) [MELARSOPROL] | – | IC50 [2]: Not Active; IC50 [3]: Not Active
O=C1[C@@H](Cc2ccccc2)N=C(c2ccccc2)c2ccccc2N1Cc1ccccc1 | 12.5 µM (≈ 5.21 µg/mL) | –
O=C1[C@H](COCc2ccccc2)N=C(c2ccccc2)c2ccccc2N1Cc1cccc2cccnc12 | 12.5 µM (≈ 6.22 µg/mL) | –
O=C1[C@H](Cc2ccccc2)N=C(c2ccccc2)c2ccccc2N1Cc1ccc(-c2ccccc2)cc1 | 6.25 µM (≈ 3.08 µg/mL) | –
CC(C)C1=N[C@@H](Cc2ccccc2)C(=O)Nc2ccccc21 | 50 µM (≈ 14.6 µg/mL) | –
CC(C)[C@@H]1N=C(c2ccccc2)c2ccccc2NC1=O | 100 µM (≈ 27.8 µg/mL) | –
O=C(CN1C(=O)[C@H](Cc2ccccc2)N=C(c2ccccc2)c2ccccc21)N1CCNCC1 | 12.5 µM (≈ 5.66 µg/mL) | –
CC(C)[C@@H]1N=C(C2CCCCC2)c2cc([N+](=O)[O-])ccc2NC1=O | 12.5 µM (≈ 4.12 µg/mL) | –
O=C(CN1C(=O)[C@H](Cc2ccccc2)N=C(c2ccccc2)c2ccccc21)N1CCN(c2ccccn2)CC1 | 6.25 µM (≈ 3.31 µg/mL) | –
CC(C)[C@H]1N=C(c2ccccc2)c2ccccc2NC1=O | 200 µM (≈ 55.7 µg/mL) | –
N=C(N)c1ccc(OCCCCCOc2ccc(C(=N)N)cc2)cc1 [PENTAMIDINE] | – | IC50 [2]: Not Active; IC50 [3]: Not Active
N=C(N)Nc1ccc(CN2C(=O)[C@H](Cc3ccccc3)N=C(c3ccccn3)c3ccccc32)cc1 | 3.13 µM (≈ 1.49 µg/mL) | –
CC(C)[C@H]1N=C(c2ccccc2)c2ccccc2N(C)C1=O | 200 µM (≈ 58.5 µg/mL) | –
O=C1[C@H](COCc2ccccc2)N=C(c2ccccc2)c2ccccc2N1Cc1ccc(-c2ccccc2)cc1 | 25 µM (≈ 13.1 µg/mL) | –
CC(C)[C@@H]1N=C(C2CCCCC2)c2cc(NC(=N)N)ccc2N(Cc2ccc(NC(=N)N)cc2)C1=O | 0.78 µM (≈ 0.381 µg/mL) | –
CC(C)C1=NCC(=O)N(C)c2ccccc21 | 400 µM (≈ 86.5 µg/mL) | –
O=C(CN1C(=O)[C@H](Cc2ccccc2)N=C(c2ccccc2)c2ccccc21)N1CCN(c2ncccn2)CC1 | 12.5 µM (≈ 6.63 µg/mL) | –
O=C1[C@H](Cc2ccccc2)N=C(c2ccccc2)c2ccccc2N1Cc1ccccc1 | 6.25 µM (≈ 2.6 µg/mL) | –
CC(C)[C@@H]1N=C(C2CCCCC2)c2cc(N)ccc2NC1=O | 100 µM (≈ 29.9 µg/mL) | –

SMILES | MIC [1] | other results
CC(C)[C@@H]1N=C(C2CCCCC2)c2ccccc2NC1=O | 25 µM (≈ 7.11 µg/mL) | –
CC(C)[C@@H]1N=C(C2CCCCC2)c2ccccc2N(Cc2ccc(NC(=N)N)cc2)C1=O | 6.25 µM (≈ 2.7 µg/mL) | –
N=C(N)Nc1ccccc1CN1C(=O)[C@H](Cc2ccccc2)N=C(c2ccccc2)c2ccccc21 | 1.56 µM (≈ 0.739 µg/mL) | –
N#CCN1C(=O)[C@H](Cc2ccccc2)N=C(c2ccccc2)c2ccccc21 | 3.1 µM (≈ 1.13 µg/mL) | –
N=C(N)NCCC[C@@H]1N=C(c2ccccc2)c2ccccc2NC1=O | 400 µM (≈ 134 µg/mL) | –
N=C(N)Nc1ccc(CN2C(=O)[C@H](Cc3ccccc3)N=C(C3CCCCC3)c3ccccc32)cc1 | 0.78 µM (≈ 0.374 µg/mL) | –
O=C1Nc2ccccc2C(c2ccccc2)=N[C@H]1Cc1ccccc1 | 6.25 µM (≈ 2.04 µg/mL) | IC50 [4]: 13800 nM; IC50 [2, 7]: 7840 nM; IC50 [3, 8]: 9230 nM; Ratio IC50 [5]: 0.57; Ratio IC50 [6]: 0.67
N=C(N)Nc1ccc(CN2C(=O)[C@H](Cc3ccccc3)N=C(c3ccccc3)c3ccccc32)cc1 | 0.78 µM (≈ 0.369 µg/mL) | IC50 [4]: 490 nM; IC50 [2, 7]: 640 nM; IC50 [3, 8]: 1310 nM; Ratio IC50 [5]: 1.29; Ratio IC50 [6]: 2.68
Nc1ccccc1CN1C(=O)[C@H](Cc2ccccc2)N=C(c2ccccc2)c2ccccc21 | 6.25 µM (≈ 2.7 µg/mL) | –
CC(C)[C@@H]1N=C(C2CCCCC2)c2cc(NC(=N)N)ccc2NC1=O | 1.56 µM (≈ 0.533 µg/mL) | –
Nc1cccc(CN2C(=O)[C@H](Cc3ccccc3)N=C(c3ccccc3)c3ccccc32)c1 | 6.25 µM (≈ 2.7 µg/mL) | –
CN1C(=O)[C@@H](Cc2ccccc2)N=C(c2ccccc2)c2ccccc21 | 400 µM (≈ 136 µg/mL) | –
O=C1Nc2ccccc2C(c2ccccc2)=N[C@@H]1Cc1ccccc1 | 50 µM (≈ 16.3 µg/mL) | –
O=C1[C@H](Cc2ccccc2)N=C(C2CCCCC2)c2ccccc2N1Cc1ccccc1 | 6.25 µM (≈ 2.64 µg/mL) | –
CC(C)[C@@H]1N=C(c2ccccc2)c2ccccc2N(Cc2cccc3cccnc23)C1=O | 25 µM (≈ 10.5 µg/mL) | –
CC(C)[C@@H]1N=C(c2ccccc2)c2ccccc2N(Cc2ccccc2)C1=O | 200 µM (≈ 73.7 µg/mL) | –
CC(C)[C@@H]1N=C(c2ccccc2)c2ccccc2N(C)C1=O | 100 µM (≈ 29.2 µg/mL) | –
O=C1CN=C(c2ccccc2)c2ccccc2N1 [RO-052921] | 400 µM (≈ 94.5 µg/mL) | –
N=C(N)Nc1cccc(CN2C(=O)[C@H](Cc3ccccc3)N=C(C3CCCCC3)c3ccccc32)c1 | 1.56 µM (≈ 0.748 µg/mL) | IC50 [4]: 330 nM; IC50 [2, 7]: 510 nM; IC50 [3, 8]: 930 nM; Ratio IC50 [5]: 1.53; Ratio IC50 [6]: 2.8
O=C1[C@H](Cc2ccccc2)N=C(c2ccccc2)c2ccccc2N1Cc1cccc(-c2ccccc2)c1 | 25 µM (≈ 12.3 µg/mL) | –

SMILES | MIC [1] | other results
O=C1[C@H](Cc2ccccc2)N=C(c2ccccc2)c2ccccc2N1Cc1ccccc1-c1ccccc1 | 6.25 µM (≈ 3.08 µg/mL) | –
O=C1[C@H](Cc2ccccc2)N=C(c2ccccc2)c2ccccc2N1Cc1cccc2cccnc12 | 25 µM (≈ 11.7 µg/mL) | –
CC(C)C1=N[C@@H](Cc2ccccc2)C(=O)N(C)c2ccccc21 | 25 µM (≈ 7.66 µg/mL) | –
CC(C)[C@@H]1N=C(c2ccccc2)c2ccccc2N(Cc2ccccc2-c2ccccc2)C1=O | 12.5 µM (≈ 5.56 µg/mL) | –
CC(C)C1=NCC(=O)Nc2ccccc21 | > 400 µM | –
O=C1[C@H](COCc2ccccc2)N=C(c2ccccc2)c2ccccc2N1Cc1cccc(-c2ccccc2)c1 | 25 µM (≈ 13.1 µg/mL) | –
N=C(N)Nc1cccc(CN2C(=O)[C@H](Cc3ccccc3)N=C(c3ccccc3)c3ccccc32)c1 | 0.78 µM (≈ 0.369 µg/mL) | IC50 [4]: 270 nM; IC50 [2, 7]: 390 nM; IC50 [3, 8]: 940 nM; Ratio IC50 [5]: 1.45; Ratio IC50 [6]: 3.52
O=C(O)CN1C(=O)[C@H](Cc2ccccc2)N=C(c2ccccc2)c2ccccc21 | 50 µM (≈ 19.2 µg/mL) | –
Nc1ccc(CN2C(=O)[C@H](Cc3ccccc3)N=C(c3ccccc3)c3ccccc32)cc1 | 12.5 µM (≈ 5.39 µg/mL) | –
CC(C)[C@@H]1N=C(C2CCCCC2)c2cc(N)ccc2N(Cc2ccc(N)cc2)C1=O | 6.25 µM (≈ 2.53 µg/mL) | –
Nc1ccc(CN2C(=O)[C@H](Cc3ccccc3)N=C(c3ccccn3)c3ccccc32)cc1 | 25 µM (≈ 10.8 µg/mL) | –
CC(C)[C@H]1N=C(c2ccccc2)c2ccccc2N(Cc2ccccc2)C1=O | 12.5 µM (≈ 4.61 µg/mL) | –
CC(C)[C@@H]1N=C(C2CCCCC2)c2ccccc2N(Cc2ccc(N)cc2)C1=O | 6.25 µM (≈ 2.43 µg/mL) | –
O=C1Nc2ccccc2C(c2ccccn2)=N[C@H]1Cc1ccccc1 | 100 µM (≈ 32.7 µg/mL) | –
Nc1ccc(CN2C(=O)[C@H](Cc3ccccc3)N=C(C3CCCCC3)c3ccccc32)cc1 | 6.25 µM (≈ 2.73 µg/mL) | –
Nc1cccc(CN2C(=O)[C@H](Cc3ccccc3)N=C(C3CCCCC3)c3ccccc32)c1 | 6.25 µM (≈ 2.73 µg/mL) | –
Cc1ccc(C(=O)Nc2ccc(S(=O)(=O)O)c3cc(S(=O)(=O)O)cc(S(=O)(=O)O)c23)cc1NC(=O)c1cccc(NC(=O)Nc2cccc(C(=O)Nc3cc(C(=O)Nc4ccc(S(=O)(=O)O)c5cc(S(=O)(=O)O)cc(S(=O)(=O)O)c45)ccc3C)c2)c1 [SURAMIN HEXASODIUM] | 0.13 µM | –
CN1C(=O)[C@H](Cc2ccccc2)N=C(c2ccccc2)c2ccccc21 | 50 µM (≈ 17 µg/mL) | –
